Measured values as given in patent publication US20250152608A1, “CONTRACEPTIVE METHODS WITH IMPROVED PEARL INDEX” (ESTETRA SRL, priority 2022, published 2025).

Assay: Solubility description
Type: physicochemical

Compound | Solubility (acetone) | Solubility (ethyl acetate and acetonitrile) | Solubility (methanol, ethanol) | Solubility (water and aqueous solutions) | Solubility (water)
C[C@]12CC[C@@H]3c4ccc(O)cc4CC[C@H]3[C@@H]1[C@@H](O)[C@@H](O)C2O (stereo in doubt) [Estetrol monohydrate, estra-1,3,5(10)-triene-3,15α,16α,17α-tetrol monohydrate] | sparingly soluble | slightly soluble | soluble | poorly soluble | –
C[C@]12CCC(=O)C=C1[C@@H]1C[C@@H]1[C@H]1[C@@H]3[C@@H]4C[C@@H]4[C@@]4(CCC(=O)O4)[C@@]3(C)CC[C@@H]12 [Drospirenone] | – | – | – | – | slight solubility
